PMC11284340 (FASEB journal : official publication of the Federation of …, 2024)
Blank lines part the entries; values can stand above or below the molecule they belong to.

Tests used:
[1] = target: T1, Drosophila insulin receptor kinase domain (D-IRK) (Drosophila melanogaster, UniProt P09208); experiment: [γ-32P]-ATP phosphocellulose kinase assay at […]; format: biochemical; conditions: read-out: % inhibition at 10 μM
T1 sequence (P09208 1358-1672): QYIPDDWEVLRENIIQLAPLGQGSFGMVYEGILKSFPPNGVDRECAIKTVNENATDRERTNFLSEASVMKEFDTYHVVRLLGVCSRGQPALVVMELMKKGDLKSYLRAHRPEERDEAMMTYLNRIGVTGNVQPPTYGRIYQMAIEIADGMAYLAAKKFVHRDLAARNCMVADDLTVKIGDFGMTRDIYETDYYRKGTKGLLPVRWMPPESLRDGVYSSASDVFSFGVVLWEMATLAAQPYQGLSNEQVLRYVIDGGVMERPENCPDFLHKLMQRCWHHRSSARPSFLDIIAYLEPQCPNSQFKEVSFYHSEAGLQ

[2] = target: T1, Drosophila insulin receptor kinase domain (D-IRK); experiment: [γ-32P]-ATP phosphocellulose kinase assay; format: biochemical; conditions: read-out: % inhibition at 10 μM
[3] = substrate: Nc1ncnc2c1ncn2[C@@H]1O[C@H](COP(=O)(O)OP(=O)(O)OP(=O)(O)O)[C@@H](O)[C@H]1O; experiment: continuous spectrophotometric coupled assay, Km; format: biochemical, Drosophila melanogaster; conditions: Mg2+ ATP-binding site

- inhibition at 10 µM [1]: ~70%
Molecule: COc1cc2c(Nc3ccc(Br)cc3F)ncnc2cc1OCC1CCN(C)CC1 [Vandetanib]

Molecule: CN[C@@H]1C[C@H]2O[C@@](C)([C@@H]1OC)n1c3ccccc3c3c4c(c5c6ccccc6n2c5c31)C(=O)NC4 [Staurosporine]
- inhibition at 10 µM [2]: 98%

B1: Drosophila insulin receptor kinase domain (D-IRK) (Drosophila melanogaster) (protein)
chain: T1 sequence (P09208 1358-1672)
- Km [3]: 1350 ± 170 µM
